Source: patent US20160046592A1, “PHARMACEUTICAL COMPOSITION FOR THE TREATMENT OF DIABETES” (Ajinomoto Co., Inc., priority 2013, published 2016)
pEC50: −log10 of the molar value. Where a name gives a salt, the structure may show the parent alone.

Target: T1, human GYS1 (glycogen synthase) (Homo sapiens, UniProt P13807)
T1 construct: made in house; host or cells: HEK293T
T1 sequence (P13807 1-737): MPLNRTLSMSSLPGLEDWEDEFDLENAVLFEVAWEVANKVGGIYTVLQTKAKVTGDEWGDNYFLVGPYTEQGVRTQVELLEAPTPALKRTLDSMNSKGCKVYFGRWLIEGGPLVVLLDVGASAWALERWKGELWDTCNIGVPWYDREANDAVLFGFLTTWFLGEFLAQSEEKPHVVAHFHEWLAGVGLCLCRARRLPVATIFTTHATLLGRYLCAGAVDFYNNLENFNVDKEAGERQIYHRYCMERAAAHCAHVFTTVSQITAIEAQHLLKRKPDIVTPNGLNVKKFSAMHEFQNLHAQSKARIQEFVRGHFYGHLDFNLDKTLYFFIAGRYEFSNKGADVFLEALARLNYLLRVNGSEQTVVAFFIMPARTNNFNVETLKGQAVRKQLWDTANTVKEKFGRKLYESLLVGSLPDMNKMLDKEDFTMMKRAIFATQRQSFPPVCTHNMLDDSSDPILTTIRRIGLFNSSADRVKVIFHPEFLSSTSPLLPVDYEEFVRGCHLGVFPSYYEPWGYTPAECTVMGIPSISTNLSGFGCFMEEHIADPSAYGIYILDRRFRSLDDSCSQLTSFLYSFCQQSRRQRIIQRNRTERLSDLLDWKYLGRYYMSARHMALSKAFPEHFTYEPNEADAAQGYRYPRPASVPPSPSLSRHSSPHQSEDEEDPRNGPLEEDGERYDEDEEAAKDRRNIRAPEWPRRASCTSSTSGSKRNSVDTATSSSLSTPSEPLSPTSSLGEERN
Experiment: Measurement of glycogen synthase activity
Type: biochemical
Settings: concentration causing 50% increase in relative activity; 100% = compound of Example 1 of WO/2011/058154 at 10 μM; 10 mM Glucose-6-phosphate; 37° C. for 25 minutes (Examples 1 to 61 and 67 to 82) or 20 minutes (Examples 62 to 66); absorbance at 340 nm
Outline: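 Human GYS1 from transfected HEK293T cells (re-dissolved 16000×g pellet) was reacted at 37 °C for 25 or 20 min in glycylglycine pH 7.3 with glucose-6-phosphate, glycogen and UDP-glucose. PK/LDH-coupled NADH read-out at 340 nm; EC50 from activity relative to a reference activator at 10 μM final (100%).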

Row | pEC50 | SMILES
1 | 7.77 | COC[C@@H]1CC[C@@H](C(=O)O)N1C(=O)c1cccc(COc2ccc(-c3cc(F)c(F)cc3SC)cc2)c1 [Example 62, (2S,5S)-1-[3-[[4-(4,5-Difluoro-2-methylsulfanyl-phenyl)phenoxy]methyl]benzoyl]-5-(methoxymethyl)pyrrolidine-2-carboxylic Acid]
2 | 7.77 | CSc1cc(F)c(F)cc1-c1ccc(OCc2cccc(C(=O)N3C[C@H](N(C)C)C[C@H]3C(=O)O)c2)cc1 [Example 63, (2S,4R)-1-[3-[[4-(4,5-Difluoro-2-methylsulfanyl-phenyl)phenoxy]methyl]benzoyl]-4-(dimethylamino)pyrrolidine-2-carboxylic Acid Trifluoroacetate]
